Key:
[1] = target: T1, SMARCA4 (Homo sapiens, UniProt P51532); assay: SMARCA4 HiBiT degradation assay in HeLa cells; type: cell-based; parameters: SMARCA4-HiBiT knock-in Hela monoclonal cell (CS3023226) were purchased from Promega; host or cells: HeLa SMARCA4-HiBiT knock-in monoclonal cells (heterozygous); conditions: 18 hours; for Dmax: HeLa
Procedure: (§1) HiBiT peptide knock-in of SMARCA2 in LgBiT expressing HEK293T cells was performed by CRISPR-mediated tagging system as described Promega. The homozygous HiBiT knock-in on c-terminus SMARCA2 was confirmed by sanger sequence. SMARCA2-HiBiT knock-in Hela monoclonal cell (CS302366) and SMARCA4-HiBiT knock-in Hela monoclonal cell (CS3023226) were purchased from Promega. The heterozygous HiBiT-knock-in was confirmed by sanger sequence in both SMARCA2-HiBiT and SMARCA4-HiBiT monoclonal cells.
(§2) Dispense 10ul aliquot of prepared Hela-SMARCA2-HiBiT or Hela-SMARCA4-HiBiT cells (1:1 ratio of cells:Trypan Blue (#1450013, Bio-Rad)) onto cell counting slide (#145-0011, Bio-Rad) and obtain cell density and cell viability using cell counter (TC20, Bio-Rad). Remove appropriate volume of resuspended cells from culture flask to accommodate 2500 cells/well @20 μL/well. Transfer Hela-HiBiT cells to 50 mL conical (#430290, Corning). Spin down at 1000 rpm for 5 min using tabletop centrifuge (SPINCHRON 15, Beckman). Discard supernatant and resuspend cell pellet in modified EMEM (#30-2003, ATCC) cell culture media containing 10% FBS (F2422-500ML, Sigma), and 1× Penicillin/Streptomycin (200 g/L) (30-002-CI, Corning) to a cell density of 125,000 cells/mL. Dispense […] of resuspended Hela-HiBit cells per well in 384-well TC treated plate (#12-565-343, Thermo Scientific) using standard cassette (#50950372, Thermo Scientific) on Multidrop Combi (#5840310, Thermo Scientific) inside laminar flow cabinet.
(§3) The degrader compounds of Table 4 were dissolved in DMSO to make 10 mM stock and 3-fold series dilutions were further conducted keeping the highest concentration 10 μM. Dispense test compounds onto plates using digital liquid dispenser (D300E, Tecan). Incubate plates in humidified tissue culture incubator at 37° C. for 18 hours. Add […] of prepared Nano-Glo® HiBiT Lytic detection buffer (N3050, Promega) to each well of 384-well plate using small tube cassette (#24073295, Thermo Scientific) on Multidrop Combi, incubate at room temperature for 30-60 min. Read plates on microplate reader (Envision 2105, PerkinElmer) using 384 well Ultra-Sensitive luminescence mode. Raw data files and compound information reports are swept into centralized data lake and deconvoluted using automated scripts designed by TetraScience, Inc. Data analysis, curve-fitting and reporting done in Dotmatics Informatics Suite using Screening Ultra module.

[2] = target: T1, SMARCA4; assay: Single dose pharmacodynamics, SMARCA4 in LNCaP tumors by western blot; type: in vivo; parameters: from tissue; host or cells: LNCaP xenograft tumours from CB17 SCID mice; conditions: mouse, LNCaP tumors in mice, tumors collected 1-5 days later, read-out: maximal degradation of SMARCA4
Procedure: (§4) In-life evaluation was conducted using 6-8-week-old male CB17 SCID mice that were subcutaneously inoculated with LNCaP tumor cells mixed 1:1 with Matrigel. Mice were castrated 3 days prior to randomization, which was done when tumors for efficacy evaluation would reach 100 mm^3-400 mm^3. […] Tumors were subsequently homogenized, and proteins were extracted before evaluating SMARCA2 and SMARCA4 expression by western blot.

[3] = target: T2, SMARCA2 (Homo sapiens, UniProt P51531); assay: Single dose pharmacodynamics, SMARCA2 in LNCaP tumors by western blot; type: in vivo; parameters: from tissue; host or cells: LNCaP xenograft tumours from CB17 SCID mice; conditions: mouse, LNCaP tumors in mice, tumors collected 1-5 days later, read-out: maximal degradation of SMARCA2
T2 sequence (P51531 whole entry): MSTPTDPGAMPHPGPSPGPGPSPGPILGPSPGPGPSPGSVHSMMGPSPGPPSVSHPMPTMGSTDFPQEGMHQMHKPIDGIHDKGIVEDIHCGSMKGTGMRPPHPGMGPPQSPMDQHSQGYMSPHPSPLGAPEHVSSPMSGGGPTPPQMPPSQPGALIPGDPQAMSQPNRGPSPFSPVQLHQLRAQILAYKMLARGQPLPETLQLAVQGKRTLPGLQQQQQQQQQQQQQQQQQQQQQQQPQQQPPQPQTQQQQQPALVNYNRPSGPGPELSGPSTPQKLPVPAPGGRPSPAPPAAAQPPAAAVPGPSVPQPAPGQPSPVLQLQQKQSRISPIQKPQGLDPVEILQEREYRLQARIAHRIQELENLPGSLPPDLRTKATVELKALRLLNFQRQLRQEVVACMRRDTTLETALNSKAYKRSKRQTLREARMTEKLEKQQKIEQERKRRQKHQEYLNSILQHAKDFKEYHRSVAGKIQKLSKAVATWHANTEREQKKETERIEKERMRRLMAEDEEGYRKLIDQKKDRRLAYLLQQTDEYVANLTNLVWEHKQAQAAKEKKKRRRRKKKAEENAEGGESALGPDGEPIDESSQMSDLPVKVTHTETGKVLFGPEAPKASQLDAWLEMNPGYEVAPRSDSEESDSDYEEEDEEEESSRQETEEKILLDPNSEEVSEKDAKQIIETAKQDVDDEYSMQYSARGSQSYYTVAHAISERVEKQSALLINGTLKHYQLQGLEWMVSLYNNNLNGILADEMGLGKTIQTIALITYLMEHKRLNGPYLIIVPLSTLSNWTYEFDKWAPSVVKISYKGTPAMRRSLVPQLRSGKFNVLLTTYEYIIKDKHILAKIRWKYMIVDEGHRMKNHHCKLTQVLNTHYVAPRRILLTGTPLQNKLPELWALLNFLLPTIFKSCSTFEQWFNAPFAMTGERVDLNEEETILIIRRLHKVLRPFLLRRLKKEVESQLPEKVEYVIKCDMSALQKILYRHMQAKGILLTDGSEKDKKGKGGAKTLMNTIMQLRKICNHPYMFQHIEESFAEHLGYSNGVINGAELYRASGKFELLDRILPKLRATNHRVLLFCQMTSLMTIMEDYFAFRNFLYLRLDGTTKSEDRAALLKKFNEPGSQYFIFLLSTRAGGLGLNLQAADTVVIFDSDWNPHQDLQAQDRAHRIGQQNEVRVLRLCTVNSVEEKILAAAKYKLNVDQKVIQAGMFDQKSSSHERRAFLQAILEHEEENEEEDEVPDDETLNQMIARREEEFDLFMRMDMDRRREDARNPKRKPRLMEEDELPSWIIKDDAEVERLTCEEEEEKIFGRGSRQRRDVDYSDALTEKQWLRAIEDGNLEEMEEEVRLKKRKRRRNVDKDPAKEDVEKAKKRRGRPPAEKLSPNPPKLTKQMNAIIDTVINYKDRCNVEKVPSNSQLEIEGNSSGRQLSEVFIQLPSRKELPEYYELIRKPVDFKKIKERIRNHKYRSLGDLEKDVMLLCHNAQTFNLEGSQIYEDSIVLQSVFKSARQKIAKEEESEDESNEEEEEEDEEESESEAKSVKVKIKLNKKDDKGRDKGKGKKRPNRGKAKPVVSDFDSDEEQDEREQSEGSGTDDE
Procedure: as §4

[4] = system: PSMA negative PC3 tumors; assay: Tumor growth inhibition in PSMA negative PC3 tumors, weekly administration; type: in vivo, mouse; conditions: FIGS. 3A-3B
[5] = Tolerability in the LNCaP CDX efficacy study; conditions: CB17 SCID mice with LNCaP tumors
Procedure: In-life evaluation was conducted using 6-8-week-old male CB17 SCID mice that were subcutaneously inoculated with LNCaP tumor cells mixed 1:1 with Matrigel. Mice were castrated 3 days prior to randomization, which was done when tumors for efficacy evaluation would reach 100 mm^3-400 mm^3.

[6] = target: T2, SMARCA2; assay: SMARCA2 HiBiT degradation assay in HeLa cells; type: cell-based; conditions: 18 hours
Procedure: as §1, §2, §3

[7] = Body weight and survival of mice in the PC3 tumor study; type: in vivo, mouse; conditions: weekly administration, FIGS. 3A-3B
[8] = system: PSMA+ prostate cancer CDX (LNCaP); assay: Anti-tumor efficacy in PSMA+ prostate cancer CDX (LNCaP); type: in vivo; conditions: castrated male CB17 SCID mice, 10 mg/kg s.c. Q3D, day 21
Procedure: as §4

[9] = system: SMARCA4 mutated cancer cells; conditions: Vangamudi et al. Cancer Res 2015; cited from earlier work
[10] = iv, single dose 20 mg/kg i.v. infusion

T1 sequence (P51532 whole entry): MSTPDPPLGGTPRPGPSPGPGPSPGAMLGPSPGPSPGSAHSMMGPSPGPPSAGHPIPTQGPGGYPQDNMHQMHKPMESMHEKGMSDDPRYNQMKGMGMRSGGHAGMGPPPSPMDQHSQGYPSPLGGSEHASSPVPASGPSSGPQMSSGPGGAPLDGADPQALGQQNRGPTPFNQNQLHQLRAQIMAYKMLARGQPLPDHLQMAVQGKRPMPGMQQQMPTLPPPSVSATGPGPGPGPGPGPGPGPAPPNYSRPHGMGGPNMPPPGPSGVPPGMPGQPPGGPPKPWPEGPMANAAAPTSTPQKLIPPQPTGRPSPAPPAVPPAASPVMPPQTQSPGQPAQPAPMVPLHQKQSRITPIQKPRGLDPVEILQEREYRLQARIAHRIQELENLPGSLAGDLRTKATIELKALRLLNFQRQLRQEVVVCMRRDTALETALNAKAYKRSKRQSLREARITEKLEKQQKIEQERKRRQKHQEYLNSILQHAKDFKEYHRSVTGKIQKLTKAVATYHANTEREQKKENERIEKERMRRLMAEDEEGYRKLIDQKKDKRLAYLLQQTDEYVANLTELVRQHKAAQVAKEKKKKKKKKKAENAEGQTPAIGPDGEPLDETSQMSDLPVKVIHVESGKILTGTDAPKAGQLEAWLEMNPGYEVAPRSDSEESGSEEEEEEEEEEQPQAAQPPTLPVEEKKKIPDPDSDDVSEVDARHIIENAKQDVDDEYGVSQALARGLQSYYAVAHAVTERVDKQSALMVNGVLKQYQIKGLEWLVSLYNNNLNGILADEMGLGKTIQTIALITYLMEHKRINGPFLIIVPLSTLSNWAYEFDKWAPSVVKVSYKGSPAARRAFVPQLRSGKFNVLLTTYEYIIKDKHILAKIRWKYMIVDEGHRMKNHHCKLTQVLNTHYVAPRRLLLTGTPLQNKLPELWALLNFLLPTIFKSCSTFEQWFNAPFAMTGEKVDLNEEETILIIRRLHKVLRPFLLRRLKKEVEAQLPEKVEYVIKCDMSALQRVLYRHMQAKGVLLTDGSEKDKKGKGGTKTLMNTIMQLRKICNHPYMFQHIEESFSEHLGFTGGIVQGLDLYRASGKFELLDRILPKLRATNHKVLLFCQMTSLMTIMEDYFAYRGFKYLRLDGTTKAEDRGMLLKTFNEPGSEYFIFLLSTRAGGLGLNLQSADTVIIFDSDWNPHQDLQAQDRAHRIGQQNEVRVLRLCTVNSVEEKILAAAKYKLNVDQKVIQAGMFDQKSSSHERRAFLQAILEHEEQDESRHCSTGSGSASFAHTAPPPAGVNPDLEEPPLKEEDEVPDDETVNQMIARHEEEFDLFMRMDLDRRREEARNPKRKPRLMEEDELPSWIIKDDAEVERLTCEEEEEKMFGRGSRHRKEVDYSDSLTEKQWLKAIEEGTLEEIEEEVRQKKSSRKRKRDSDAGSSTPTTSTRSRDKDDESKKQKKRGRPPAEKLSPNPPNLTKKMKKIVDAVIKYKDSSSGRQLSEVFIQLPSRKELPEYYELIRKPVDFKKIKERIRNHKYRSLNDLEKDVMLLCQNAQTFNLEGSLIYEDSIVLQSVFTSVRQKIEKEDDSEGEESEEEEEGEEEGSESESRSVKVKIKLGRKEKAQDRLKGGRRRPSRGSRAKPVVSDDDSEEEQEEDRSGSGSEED

DC50 [1] [nM] | Dmax [1] [%] | DC50 [6] [nM] | Dmax [6] [%] | Compound | other results
0.1 to 1 | > 90 | 0.1 to 1 | > 90 | C[C@]12CNc3nnc(-c4ccccc4O)cc3N1C[C@H](Oc1ncc(CN3CCN(c4ccc5c(c4)C(=O)N([C@H]4CCC(=O)NC4=O)C5)CC3)cc1F)C2 [Compound 2] | 
 |  |  |  | Cc1ncsc1-c1ccc([C@H](C)NC(=O)[C@@H]2C[C@@H](O)CN2C(=O)[C@@H](c2cc(OCCN3CCC(CN4CCN5c6cc(-c7ccccc7O)nnc6NC[C@H]5C4)CC3)no2)C(C)C)cc1 [Compound 2] | Dmax at 10 mg/kg ([2]; sc, single dose 10 mg/kg s.c.): 86%; Dmax at 10 mg/kg ([3]; sc, single dose 10 mg/kg s.c.): 99%; tumor growth inhibition [4]: efficacious; mouse body weight loss and death [7]: caused mouse body weight loss and death; tumor growth inhibition (TGI) [8]: 93%; mice died during the study ([5]; 10 mg/kg s.c. Q3D): 83.3%
0.1 to 1 |  | 0.1 to 1 | > 90 | Cc1cc(CN2CCN(c3ccc4c(c3)C(=O)N([C@H]3CCC(=O)NC3=O)C4)CC2)cnc1O[C@H]1CN2c3cc(-c4ccccc4O)nnc3NC[C@]2(C)C1 [Compound 3] | SMARCA4 Dmax [1]: B (50%<Dmax≤90%)
0.1 to 1 |  | < 0.1 |  | Cc1cc(CN2CCN(c3ccc4c(c3)C(=O)N([C@H]3CCC(=O)NC3=O)C4)CC2)cnc1O[C@H]1CN2c3cc(-c4ccccc4O)nnc3NC[C@]2(C)C1 [Compound 4] | SMARCA4 Dmax [1]: A (Dmax>90%); SMARCA2 Dmax [6]: A (Dmax>90%)
0.1 to 1 | 50 to 90 | < 0.1 | > 90 | Cc1cc(C(=O)N2CCN(c3ccc4c(c3)C(=O)N([C@H]3CCC(=O)NC3=O)C4)CC2)cnc1O[C@H]1CN2c3cc(-c4ccccc4O)nnc3NC[C@]2(C)C1 [Compound 5] | 
< 0.1 | > 90 | < 0.1 | > 90 | CC[C@]12CNc3nnc(-c4ccccc4O)cc3N1C[C@H](Oc1ncc(CN3CCN(c4ccc5c(c4)C(=O)N([C@H]4CCC(=O)NC4=O)C5)CC3)cc1C)C2 [Compound 6] | 
0.1 to 1 | 50 to 90 | < 0.1 | > 90 | CC[C@]12CNc3nnc(-c4ccccc4O)cc3N1C[C@H](Oc1ncc(C(=O)N3CCN(c4ccc5c(c4)C(=O)N([C@H]4CCC(=O)NC4=O)C5)CC3)cc1C)C2 [Compound 7] | 
0.1 to 1 | > 90 | < 0.1 | > 90 | CC[C@]12CNc3nnc(-c4ccccc4O)cc3N1C[C@H](Oc1ncc(CN3CCN(c4ccc5c(c4)C(=O)N([C@H]4CCC(=O)NC4=O)C5)CC3)nc1C)C2 [Compound 8] | 
0.1 to 1 | > 90 | < 0.1 | > 90 | CC[C@]12CNc3nnc(-c4ccccc4O)cc3N1C[C@H](Oc1ccc(CN3CCN(c4ccc5c(c4)C(=O)N([C@H]4CCC(=O)NC4=O)C5)CC3)cn1)C2 [Compound 9] | 
0.1 to 1 | 50 to 90 | 0.1 to 1 | > 90 | CC[C@]12CNc3nnc(-c4ccccc4O)cc3N1C[C@H](Oc1ccc(CN3CCC(c4ccc5c(c4)C(=O)N([C@H]4CCC(=O)NC4=O)C5)CC3)cn1)C2 [Compound 10] | 
1 to 10 | > 90 | 0.1 to 1 | > 90 | Cc1ncsc1-c1ccc([C@H](C)NC(=O)[C@@H]2C[C@@H](O)CN2C(=O)[C@@H](c2cc(OCCN3CCC(N4CCN5c6cc(-c7ccccc7O)nnc6N[C@@H](C)[C@@H]5C4)CC3)no2)C(C)C)cc1 [Compound 11] | 
1 to 10 | > 90 | 1 to 10 | > 90 | Cc1ncsc1-c1ccc([C@H](C)NC(=O)[C@@H]2C[C@@H](O)CN2C(=O)[C@@H](c2cc(OCCN3CCC(N4CCN5c6cc(-c7ccccc7O)nnc6N[C@H](C)[C@@H]5C4)CC3)no2)C(C)C)cc1 [Compound 12] | 
1 to 10 | > 90 | 0.1 to 1 | > 90 | Cc1ncsc1-c1ccc([C@H](C)NC(=O)[C@@H]2C[C@@H](O)CN2C(=O)[C@@H](c2cc(OCCN3CCC(N4CCN5c6cc(-c7ccccc7O)nnc6N[C@H](C)[C@H]5C4)CC3)no2)C(C)C)cc1 [Compound 13] | 
1 to 10 | 50 to 90 | 1 to 10 | 50 to 90 | Cc1ncsc1-c1ccc([C@H](C)NC(=O)[C@@H]2C[C@@H](O)CN2C(=O)[C@@H](c2cc(OCCN3CCC(N4CCN5c6cc(-c7ccccc7O)nnc6N[C@@H](C)[C@H]5C4)CC3)no2)C(C)C)cc1 [Compound 14] | 
 |  |  |  | O=C(/C=C/N1C[C@H]2C[C@@H]1CN2c1ccccn1)c1ccccc1O [PFI-3] | effects on cell proliferation inhibition [9]: none to minor effects

Compound | DC50 [1] [nM] | Dmax [1] [%] | DC50 [6] [nM] | Dmax [6] [%] | other results
C[C@]12CNc3nnc(-c4ccccc4O)cc3N1C[C@H](Oc1ccc(CN3CCN(c4ccc5c(c4)C(=O)N([C@H]4CCC(=O)NC4=O)C5)CC3)cn1)C2 [Compound 1] | 0.1 to 1 | > 90 | < 0.1 | > 90 | Dmax at 20 mg/kg [2, 10]: 83%; Dmax at 20 mg/kg [3, 10]: 98%; tumor growth inhibition [4]: did not induce significant tumor growth inhibition; body weight loss ([5]; 20 mg/kg i.v. infusion QW): minimal; mouse deaths ([5]; 20 mg/kg i.v. infusion QW): no mouse deaths

From US20250276074A1, “BRM AND BRG1 TARGETING ANTIBODY-DRUG CONJUGATES AND METHODS OF USE THEREOF” (Prelude Therapeutics Incorporated, priority 2024, published 2025)
